Assays:
[1] = Turbidity of ground sterol/docusate sodium matrix shaken in water; format: physicochemical; settings: shaken 30 seconds in 25 milliliter deionized water; for Turbidity, Series 2: measured after standing 20 minutes; for Turbidity, Series 1: measured after standing one minute
Description: Yet another method to determine whether the desired level of hydrocarbon has been added to the sterol/stanol, is to measure the turbidity of the solution after 100 milligrams of the ground sterol/stanol/hydrocarbon are added to water. The greater turbidity value, the more effectively the solid solution is able to be dispersed in water. […] Preferred turbidity levels are greater than about 1500, preferably greater than 2000 and most preferably greater than 3000 Nephelometric Turbidity Units (NTU). As used herein turbidity is understood to be the same as defined by the United States Pharmacopeia, 15th Edition, the light scattering effect of suspended particles and turbidity as the measure of the decrease in the incident beam intensity per unit length of a given suspension. The range of turbidty values is from 0 to 20,000 NTU. As a point of reference the turbidity of water is zero. The turbidity of the samples is measured at room temperature.
A docusate sodium/β-sitosterol matrix was prepared. The sample was shaken for 30 seconds in a vial containing 25 milliliter deionized water. In Series 1, turbidity measurements were taken after allowing the shaken sample to stand one minute. In Series 2, measurements were made after standing for 20 minutes.

[2] = Wetting and time to disperse of powdered matrix in unstirred water; format: physicochemical; settings: similar conditions to Example 5 (200 mg in 250 ml water); up to three days vigorous stirring
From the text: Another technique for measuring the crystallinity of the solid matrix is to measure the time in which a ground powdered sample of the solid takes to disperse in unstirred water. When an appropriate amount of the appropriate hydrocarbon material has been added, […], preferably in less than about 45 seconds and most preferably less than about 30 seconds. Agitation, including mild agitation such as a stirring bar, can be employed to enhance the dissolution of the solid solution in water.
Additional sitosterol/docusate sodium matrices were prepared and added to water.

With `CCCCC(CC)COC(=O)CC(C(=O)OCC(CC)CCCC)S(=O)(=O)[O-].[Na+]` (centres unmarked) [100% docusate sodium, docusate sodium] the “Turbidity, Series 2” value [1] was 0.441 NTU and the “Turbidity, Series 1” value [1] was 1.22 NTU.
In the case of `CC[C@H](CC[C@@H](C)[C@H]1CC[C@H]2[C@@H]3CC=C4C[C@@H](O)CC[C@]4(C)[C@H]3CC[C@]12C)C(C)C` [100% sterol, β-sitosterol], the “Turbidity, Series 2” value [1] was 523 NTU, the “Turbidity, Series 1” value [1] was 1301 NTU and the Wetting in water [2] was “does not wet at all”.
